Numbers after ± are expanded uncertainties.

For the first data set the following is noted: 298.15 K; 101.33 kPa; Liquid; Sing-around technique in a fixed-path interferometer.
Regarding `C1CCCCC1` [cyclohexane], the speed of sound is given as 1254 ± 1 m/s.
On the same count and under the same terms, in the case of `CCCCCCC` [heptane] it was 1131 ± 1 m/s.
Take `CCCCCC` [hexane]: the speed of sound stood at 1077 ± 2 m/s.

The same data set, now with this note: 298.15 K; 101.33 kPa; Liquid; Vibrating tube method.
On to `C1CCCCC1` [cyclohexane], for which the mass density is on record as 773.86 ± 0.14 kg/m3.
On to `CCCCCCC` [heptane], for which the mass density worked out at 679.91 ± 0.18 kg/m3.
`CCCCCC` [hexane]: the mass density stood at 655.21 ± 0.26 kg/m3.

Still in this data set, the particulars now being: 303.15 K; 101.33 kPa; Liquid; Sing-around technique in a fixed-path interferometer.
As to `C1CCCCC1` [cyclohexane], the speed of sound was 1229 ± 1 m/s.
Still for that read-out and setting: under `CCCCCCC` [heptane] stands 1109 ± 1 m/s; under `CCCCCC` [hexane], 1054 ± 2 m/s.

The same data set, now with this note: 303.15 K; 101.33 kPa; Liquid; Vibrating tube method.
For the molecule `C1CCCCC1` [cyclohexane], the mass density was determined as 769.12 ± 0.14 kg/m3.
In the case of `CCCCCCC` [heptane], the mass density is on record as 675.63 ± 0.19 kg/m3.
Still for that read-out and setting: under `CCCCCC` [hexane] stands 650.64 ± 0.26 kg/m3.

Still in this data set, the particulars now being: 308.15 K; 101.33 kPa; Liquid; Sing-around technique in a fixed-path interferometer.
On to `C1CCCCC1` [cyclohexane], for which the speed of sound came out at 1205 ± 1 m/s.
Still for that read-out and setting: in the case of `CCCCCCC` [heptane] it was 1088 ± 1 m/s.
Regarding `CCCCCC` [hexane], the speed of sound is on record as 1032 ± 2 m/s.

Staying with this data set, now noted: 308.15 K; 101.33 kPa; Liquid; Vibrating tube method.
With `C1CCCCC1` [cyclohexane], the mass density was determined as 764.35 ± 0.14 kg/m3.
As for `CCCCCCC` [heptane], the mass density worked out at 671.33 ± 0.19 kg/m3.
In the case of `CCCCCC` [hexane], the mass density worked out at 646.03 ± 0.26 kg/m3.

The same data set, now with this note: 313.15 K; 101.33 kPa; Liquid; Sing-around technique in a fixed-path interferometer.
Take `C1CCCCC1` [cyclohexane]: the speed of sound is on record as 1181 ± 1 m/s.
As to `CCCCCCC` [heptane], the speed of sound worked out at 1066 ± 1 m/s.
In the case of `CCCCCC` [hexane], the speed of sound is 1010 ± 2 m/s.

The data set is the same for the next values; noted with them: 313.15 K; 101.33 kPa; Liquid; Vibrating tube method.
`C1CCCCC1` [cyclohexane]: the mass density stood at 759.56 ± 0.14 kg/m3.
Regarding `CCCCCCC` [heptane], the mass density was 667.01 ± 0.19 kg/m3.
As to `CCCCCC` [hexane], the mass density stood at 641.37 ± 0.26 kg/m3.

Still in this data set, the particulars now being: 318.15 K; 101.33 kPa; Liquid; Sing-around technique in a fixed-path interferometer.
As to `C1CCCCC1` [cyclohexane], the speed of sound was 1157 ± 1 m/s.
Regarding `CCCCCCC` [heptane], the speed of sound was 1045 ± 1 m/s.
Regarding `CCCCCC` [hexane], the speed of sound was found to be 988 ± 2 m/s.

The same data set, now with this note: 318.15 K; 101.33 kPa; Liquid; Vibrating tube method.
Take `C1CCCCC1` [cyclohexane]: the mass density amounted to 754.74 ± 0.14 kg/m3.
Still for that read-out and setting: in the case of `CCCCCCC` [heptane] it was 662.65 ± 0.19 kg/m3.
Consider `CCCCCC` [hexane], for which the mass density was 636.67 ± 0.26 kg/m3.

Still in this data set, the particulars now being: 323.15 K; 101.33 kPa; Liquid; Sing-around technique in a fixed-path interferometer.
On to `C1CCCCC1` [cyclohexane], for which the speed of sound came out at 1134 ± 1 m/s.
Turning to `CCCCCCC` [heptane], the speed of sound came out at 1024 ± 1 m/s.
As to `CCCCCC` [hexane], the speed of sound turned out to be 965 ± 2 m/s.

The same data set, now with this note: 323.15 K; 101.33 kPa; Liquid; Vibrating tube method.
In the case of `C1CCCCC1` [cyclohexane], the mass density is reported as 749.88 ± 0.15 kg/m3.
On the same count and under the same terms, under `CCCCCCC` [heptane] stands 658.26 ± 0.19 kg/m3.
Still for that read-out and setting: in the case of `CCCCCC` [hexane] it was 631.92 ± 0.26 kg/m3.

The values are drawn from the NIST ThermoML archive (doi:10.1016/j.jct.2012.09.015).
